Results on 15 molecules are retold here after US11999727B2 (Tango Therapeutics, Inc., priority 2020, dated 2024).

Where two headings read alike, the source gives them in different places.

Experiment [1] deals with T1, PRMT5 (Homo sapiens, UniProt O14744).
T1 construct: purchased Viva (custom protein)
Kind of experiment: PRMT5 biochemical IC50 assay with MTA as cofactor. The note with it: PRMT5, MTA as cofactor; read-out: MTA IC50.

The subject of experiment [2] is HAP1 MTAP-deleted cell line. Kind of experiment: Viability assay, MTAP-deleted cell line. Type of experiment: cell-based. The text has this: Table 1 additionally indicates IC50 values in a viability assay for the MTAP-deleted cell line (column 10), indicating the effect of treatment with compound on cell survival.
For experiment [3], the target named is T1, PRMT5. Kind of experiment: PRMT5 biochemical IC50 assay with no cofactor. The conditions noted are these: PRMT5, no cofactor. An excerpt:
Table 1 indicates IC50 values (μM) against PRMT5 for exemplary compounds in the presence of SAM as cofactor, with no cofactor, and with MTA as cofactor, respectively (columns 4-6). […] Ki values can be calculated from the IC50 values as described in the Examples section. As detailed in the Examples section, for the assay performed in the presence of SAM, IC50=Ki×1.5 (Ki=IC50/1.5).

Experiment [4] has as its system HAP1 MTAP-deleted cell line. Kind of experiment: SDMA in-cell western assay, HAP1 MTAP-deleted. The format is cell-based. A digest of the protocol: (§1)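 IC50 values come from SDMA signal quantified by in-cell western in two HAP1 lines, one with native MTAP levels and one lacking MTAP.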
Experiment [5] deals with T1, PRMT5. Briefly: PRMT5 biochemical IC50 assay with SAM as cofactor. The note with it: PRMT5, SAM as cofactor; read-out: SAM IC50.
The subject of experiment [6] is HAP1 MTAP-intact cell line. Kind of experiment: SDMA in-cell western assay, HAP1 MTAP-intact. Type of experiment: cell-based. The method, boiled down: as §1
[7] abbreviates: Homo sapiens, HAP1, viability assay, MTAP-deleted cell line, read-out: HAP1 MTAP deleted viability.
The mark [8] stands for this setting: Homo sapiens, HAP1, SDMA in-cell western, HAP1 MTAP-deleted, read-out: HAP 1 MTAP deleted IC50.
[9] abbreviates: IC50 ratio HAP1 MTAP-intact / HAP1 MTAP-deleted, SDMA in-cell western.
Setting [10] is: Homo sapiens, HAP1, SDMA in-cell western, HAP1 MTAP-intact, read-out: MTAP HAP1 intact IC50.
Setting [11] is: read-out: No Cofactor/ rel IC50.
Setting [12] is: Homo sapiens, HAP1, SDMA in-cell western, HAP1 MTAP-deleted, read-out: HAP1 MTAP deleted IC50.
The mark [13] stands for this setting: Homo sapiens, HAP1, viability IC50, MTAP-deleted cell line, read-out: HAP1 MTAP deleted viability.
The mark [14] stands for this setting: Homo sapiens, HAP1, viability assay, HAP1 MTAP-deleted, read-out: HAP1 MTAP deleted viability.

T1 sequence (O14744 whole entry): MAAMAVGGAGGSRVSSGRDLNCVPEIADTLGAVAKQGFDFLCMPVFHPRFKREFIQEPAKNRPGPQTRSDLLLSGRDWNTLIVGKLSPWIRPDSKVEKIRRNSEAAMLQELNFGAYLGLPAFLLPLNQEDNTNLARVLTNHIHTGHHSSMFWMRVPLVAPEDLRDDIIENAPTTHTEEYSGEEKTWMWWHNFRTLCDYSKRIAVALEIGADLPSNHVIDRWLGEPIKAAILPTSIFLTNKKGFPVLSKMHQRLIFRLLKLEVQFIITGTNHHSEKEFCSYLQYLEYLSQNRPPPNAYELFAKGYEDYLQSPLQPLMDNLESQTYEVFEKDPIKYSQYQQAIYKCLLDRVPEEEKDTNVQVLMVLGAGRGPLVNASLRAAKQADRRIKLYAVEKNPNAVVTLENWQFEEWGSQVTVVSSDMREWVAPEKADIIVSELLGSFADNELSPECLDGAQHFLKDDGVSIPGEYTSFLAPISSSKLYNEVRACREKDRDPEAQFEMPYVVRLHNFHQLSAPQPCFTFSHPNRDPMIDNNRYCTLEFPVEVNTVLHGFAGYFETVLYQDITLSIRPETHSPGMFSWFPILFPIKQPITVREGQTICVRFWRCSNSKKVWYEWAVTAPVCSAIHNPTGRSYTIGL
T1 sequence (Q9BQA1 whole entry partner): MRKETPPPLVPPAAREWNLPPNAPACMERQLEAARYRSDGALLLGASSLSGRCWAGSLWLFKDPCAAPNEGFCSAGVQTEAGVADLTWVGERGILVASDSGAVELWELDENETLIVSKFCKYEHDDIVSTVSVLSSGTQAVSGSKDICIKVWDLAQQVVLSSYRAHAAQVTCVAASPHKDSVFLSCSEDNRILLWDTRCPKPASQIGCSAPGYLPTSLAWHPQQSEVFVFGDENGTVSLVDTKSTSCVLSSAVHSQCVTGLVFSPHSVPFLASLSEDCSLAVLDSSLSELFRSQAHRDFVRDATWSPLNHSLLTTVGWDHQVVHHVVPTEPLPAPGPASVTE

For `Cc1ccc([C@H]2CC[C@H](C)CN2C(=O)C(=O)Nc2cncc(C(N)=O)c2)nc1` (racemic) [Compound 937, 5-[[2-[(2R,5S)-5-Methyl-2-(5-methyl-2-pyridyl)-1-piperidyl]-2-oxo-acetyl]amino]pyridine-3-carboxamide], the IC50 is 50 to 500 nM at PRMT5 [1]; 1000 to 10000 nM in experiment [2] (setting [7]); 50 to 500 nM on PRMT5 [3] (read-out: No Cofactor/rel IC50); 100 to 1000 nM in experiment [4] (setting [8]); 50 to 500 nM on PRMT5 [5]; greater than 1000 nM in experiment [6] (setting [10]). Also, in experiment [4] (setting [9]), the MTAP intact/deleted ratio entry is given as “A (an IC50 ratio greater than or equal to 10 fold)”.
As for `NC(=O)c1cncc(NC(=O)C(=O)N2CCCC[C@H]2c2ccccc2)c1` (single isomer, unassigned) [Compound 97], the IC50 at PRMT5 [1] was 50 to 500 nM; in experiment [2] (setting [7]) it was greater than 10000 nM; on PRMT5 [3] (setting [11]), greater than 500 nM; in experiment [4] (setting [8]), greater than 1000 nM; at PRMT5 [5] it was greater than 500 nM; in experiment [6] (setting [10]), greater than 1000 nM. In addition, the “MTAP intact/deleted ratio” value in experiment [4] (setting [9]) is “C (an IC50 ratio of less than 3 fold)”.
On to `COc1ncc(NC(=O)C(=O)N2C[C@H](C)CC[C@H]2c2ccc3[nH]ncc3c2)cc1C(N)=O` (single isomer, unassigned) [Compound 465], for which the IC50 on PRMT5 [1] was greater than 500 nM; in experiment [2] (setting [7]), greater than 10000 nM; at PRMT5 [3] (read-out: No Cofactor/rel IC50) it was greater than 500 nM; in experiment [4] (setting [12]) it was greater than 1000 nM; at PRMT5 [5], greater than 500 nM; in experiment [6] (setting [10]) it was greater than 1000 nM. Moreover, the MTAP intact/deleted ratio entry in experiment [4] (setting [9]) is recorded as “B (an IC50 ratio greater than or equal to 3 fold but lower than 10 fold)”.
Turning to `C[C@H]1CC[C@H](c2ccc3sc(C4CCN(C)CC4)nc3c2)N(C(=O)C(=O)Nc2cnc(OC(F)(F)F)c(C(N)=O)c2)C1` (single isomer, unassigned) [Compound 1337], the IC50 is less than 50 nM at PRMT5 [1]; less than 1000 nM in experiment [2] (Homo sapiens, HAP1, viability, HAP1 MTAP-deleted cell line, read-out: HAP1 MTAP deleted viability); less than 50 nM on PRMT5 [3] (setting [11]); less than 100 nM in experiment [4] (setting [8]); less than 50 nM at PRMT5 [5]; less than 100 nM in experiment [6] (setting [10]). Besides, the “MTAP intact/deleted ratio” value in experiment [4] (setting [9]) is on record as “B (an IC50 ratio greater than or equal to 3 fold but lower than 10 fold)”.
With `Cc1cc(NC(=O)C(=O)N2C[C@@H](C)CC[C@@H]2c2ccc(C(F)F)nc2)cnc1N` (single isomer, unassigned) [Compound 1018], the IC50 was less than 50 nM at PRMT5 [1]; 1000 to 10000 nM in experiment [2] (setting [7]); 50 to 500 nM on PRMT5 [3] (read-out: No Cofactor/rel IC50); 100 to 1000 nM in experiment [4] (setting [8]); 50 to 500 nM at PRMT5 [5]; 100 to 1000 nM in experiment [6] (setting [10]). The MTAP intact/deleted ratio entry in experiment [4] (setting [9]) is “B (an IC50 ratio greater than or equal to 3 fold but lower than 10 fold)”.
Consider `Cc1cc(NC(=O)C(=O)N2C[C@@H](C)CC[C@@H]2c2ccc3c(c2)C(=O)NC3)cnc1N` (single isomer, unassigned) [Compound 657], for which the IC50 on PRMT5 [1] was less than 50 nM; in experiment [2] (setting [13]), less than 1000 nM; at PRMT5 [3] (read-out: No Cofactor/rel IC50), less than 50 nM; in experiment [4] (setting [8]) it was less than 100 nM; on PRMT5 [5], 50 to 500 nM; in experiment [6] (setting [10]) it was 100 to 1000 nM. The MTAP intact/deleted ratio entry in experiment [4] (setting [9]) is “A (an IC50 ratio greater than or equal to 10 fold)”.
Consider `CCc1cc(NC(=O)C(=O)N2C[C@H](C)CC[C@H]2c2ccc(-c3nccs3)cc2)cnc1N` (single isomer, unassigned) [Compound 813], for which the IC50 on PRMT5 [1] is less than 50 nM; in experiment [2] (setting [14]), less than 1000 nM; on PRMT5 [3] (read-out: No Cofactor/rel IC50) it was 50 to 500 nM; in experiment [4] (setting [12]), 100 to 1000 nM; at PRMT5 [5], 50 to 500 nM; in experiment [6] (setting [10]), greater than 1000 nM. The MTAP intact/deleted ratio entry in experiment [4] (setting [9]) is given as “A (an IC50 ratio greater than or equal to 10 fold)”.
Regarding `NC(=O)c1cncc(NC(=O)C(=O)N2CCCCC2C2CCCCC2)c1` (single isomer, unassigned) [Compound 113, 5-(2-(2-cyclohexylpiperidin-1-yl)-2-oxoacetamido)nicotinamide], the IC50 at PRMT5 [1] is less than 50 nM; in experiment [2] (viability assay, MTAP-deleted cell line, read-out: HAP1 MTAP deleted viability) it was 1000 to 10000 nM; at PRMT5 [3] (setting [11]), 50 to 500 nM; in experiment [4] (SDMA in-cell western, HAP1 MTAP-deleted, read-out: HAP 1 MTAP deleted IC50), less than 100 nM; at PRMT5 [5] it was 50 to 500 nM; in experiment [6] (SDMA in-cell western, HAP1 MTAP-intact, read-out: MTAP HAP1 intact IC50), greater than 1000 nM. In addition, in experiment [4] (setting [9]), the “MTAP intact/deleted ratio” value is “A (an IC50 ratio greater than or equal to 10 fold)”.
`C[C@H]1CC[C@H](c2ccc3sncc3c2)N(C(=O)C(=O)Nc2cnc(N)c(C3CC3)c2)C1` (single isomer, unassigned) [Compound 1153]: the IC50 was less than 50 nM on PRMT5 [1]; less than 1000 nM in experiment [2] (Homo sapiens, HAP1, read-out: HAP1 MTAP deleted viability); less than 50 nM on PRMT5 [3] (read-out: No Cofactor/rel IC50); less than 100 nM in experiment [4] (Homo sapiens, HAP1, read-out: HAP1 MTAP deleted IC50); 50 to 500 nM at PRMT5 [5]; 100 to 1000 nM in experiment [6] (Homo sapiens, HAP1, read-out: MTAP HAP1 intact IC50). The MTAP intact/deleted ratio result in experiment [4] (IC50 ratio HAP1 MTAP-intact vs HAP1 MTAP-deleted, SDMA in-cell western) is given as “A (an IC50 ratio greater than or equal to 10 fold)”.
For `Cc1ccc([C@@H]2CC[C@@H](C)CN2C(=O)C(=O)Nc2cncc(C(N)=O)c2)cn1` (single isomer, unassigned) [Compound 654], the IC50 at PRMT5 [1] is less than 50 nM; in experiment [2] (setting [13]), 1000 to 10000 nM; at PRMT5 [3] (read-out: No Cofactor/rel IC50), 50 to 500 nM; in experiment [4] (setting [8]) it was 100 to 1000 nM; at PRMT5 [5], 50 to 500 nM; in experiment [6] (setting [10]), greater than 1000 nM. Also, in experiment [4] (setting [9]), the MTAP intact/deleted ratio result is “A (an IC50 ratio greater than or equal to 10 fold)”.
Regarding `COc1ncc(NC(=O)C(=O)N2C[C@@H](C)CC[C@@H]2c2ccc3[nH]c(=O)ccc3c2)cc1C(N)=O` (single isomer, unassigned) [Compound 807], the IC50 was less than 50 nM at PRMT5 [1]; less than 1000 nM in experiment [2] (setting [14]); less than 50 nM at PRMT5 [3] (read-out: No Cofactor/rel IC50); less than 100 nM in experiment [4] (setting [12]); 50 to 500 nM on PRMT5 [5]; 100 to 1000 nM in experiment [6] (setting [10]). In addition, the MTAP intact/deleted ratio entry in experiment [4] (setting [9]) is on record as “A (an IC50 ratio greater than or equal to 10 fold)”.
For the molecule `NC(=O)c1cncc(NC(=O)C(=O)N2CCCCC2c2ccccc2)c1N` (stereo not drawn) [Compound 119, 4-amino-5-[[2-oxo-2-(2-phenyl-1-piperidyl)acetyl]amino]pyridine-3-carboxamide], the IC50 on PRMT5 [1] is 50 to 500 nM; in experiment [2] (setting [7]), greater than 10000 nM; on PRMT5 [3] (setting [11]) it was 50 to 500 nM; in experiment [4] (setting [8]), 100 to 1000 nM; at PRMT5 [5] it was 50 to 500 nM; in experiment [6] (setting [10]), greater than 1000 nM. Moreover, in experiment [4] (setting [9]), the “MTAP intact/deleted ratio” value is “A (an IC50 ratio greater than or equal to 10 fold)”.
As for `CNC(=O)[C@@H]1CC[C@H](c2ccccc2)N(C(=O)C(=O)Nc2cnc(N)c(C)c2)C1` (racemic) [Compound 253, 1-(2-((6-amino-5-methylpyridin-3-yl)amino)-2-oxoacetyl)-N-methyl-6-phenylpiperidine-3-carboxamide], the IC50 at PRMT5 [1] is 50 to 500 nM; in experiment [2] (setting [7]), greater than 10000 nM; on PRMT5 [3] (read-out: No Cofactor/rel IC50) it was greater than 500 nM; in experiment [4] (setting [12]), greater than 1000 nM; at PRMT5 [5] it was 50 to 500 nM; in experiment [6] (setting [10]), greater than 1000 nM. Besides, the MTAP intact/deleted ratio result in experiment [4] (setting [9]) is listed as “C (an IC50 ratio of less than 3 fold)”.
As for `CNc1cccc([C@@H]2CCCCN2C(=O)C(=O)Nc2cncc(C(N)=O)c2)c1` (single isomer, unassigned) [Compound 334], the IC50 at PRMT5 [1] is less than 50 nM; in experiment [2] (setting [7]), 1000 to 10000 nM; on PRMT5 [3] (read-out: No Cofactor/rel IC50) it was 50 to 500 nM; in experiment [4] (setting [12]) it was less than 100 nM; at PRMT5 [5] it was 50 to 500 nM; in experiment [6] (setting [10]), greater than 1000 nM. Besides, in experiment [4] (setting [9]), the MTAP intact/deleted ratio entry was “A (an IC50 ratio greater than or equal to 10 fold)”.
For `C[C@@H]1CC[C@@H](c2ccc(OC(F)F)cc2)N(C(=O)C(=O)Nc2cncc(C(N)=O)c2)C1` (racemic) [Compound 271, rac-5-{2-[(2R,5S)-2-[4-(Difluoromethoxy)phenyl]-5-methylpiperidin-1-yl]-2-oxoacetamido}pyridine-3-carboxamide], the IC50 on PRMT5 [1] is less than 50 nM; in experiment [2] (setting [7]) it was 1000 to 10000 nM; at PRMT5 [3] (read-out: No Cofactor/rel IC50), 50 to 500 nM; in experiment [4] (setting [12]), 100 to 1000 nM; on PRMT5 [5] it was 50 to 500 nM; in experiment [6] (setting [10]) it was greater than 1000 nM. In addition, in experiment [4] (setting [9]), the MTAP intact/deleted ratio result is reported as “A (an IC50 ratio greater than or equal to 10 fold)”.
